This note sets out measurements from PubChem BioAssay (NCI).

The structures appear in SMILES notation. Values joined by “and” are separate entries in the source; they are usually repeats but may differ in a detail not shown here. Identical values can stand only once.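 In this assay, cells in 96-well plates receive the compound at five concentrations for 48 hours. Endpoints are linearly interpolated between the surrounding concentrations. GI50 marks 50% less growth. TGI marks complete inhibition of growth.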

What all share (experiment): inhibition of tumour cell growth, NCI panel, 48 h
Assay [1] deals with IGROV1 ovarian.
The test system of assay [2] is CCRF-CEM leukemia.
Assay [3] relates to NCI-H23 lung.
For assay [4], the system named is MALME-3M melanoma.
For assay [5], the system named is SNB-19 CNS.
Assay [6] relates to A498 renal.
Assay [7] deals with NCI/ADR-RES ovarian.
The subject of assay [8] is U251 CNS.
The subject of assay [9] is SK-MEL-28 melanoma.
Assay [10] concerns TK-10 renal.

Take `COc1cc(C(=O)N/N=C/c2ccc(N(C)C)cc2)cc(OC)c1OC`: the GI50 in [1] was 1.15 µM; in assay [2] it was 344 nM; in [3], 588 nM; in [4], 582 nM; in [5], 10.6 µM; in assay [6] it was 172 nM. In addition, the figures for the GI50 in [7], in assay [8] and in assay [9] were 0.337 µM, 436 nM and 622 nM, respectively. In addition, the TGI in assay [1] is over 100 µM; in assay [2], over 100 µM; in [3] it was over 100 µM; in assay [4], over 100000 nM; in [5], over 100 µM; in assay [6] it was 0.799 µM. The TGI was 1.6 µM in assay [7], over 100 µM in assay [8] and over 100 µM in [9].

Consider `NCC1OC(OC2C(CO)OC(OC3C(O)C(N)CC(N)C3OC3OC(CO)C(O)CC3N)C2O)C(N)C(O)C1OC1OC(CO)C(O)C(O)C1O` (centres undefined), for which the GI50 in assay [1], in [2], in [3], in [5], in [6] and in assay [10] was over 50 µg/mL in each case. In addition, the GI50 in assay [7], in assay [8] and in assay [9] was over 50 µg/mL in each case. The TGI in assay [1], in assay [2], in assay [3], in assay [5], in assay [6] and in assay [10] was over 50 µg/mL each time. Further, the TGI in assay [7], in assay [8] and in [9] was over 50 µg/mL in each case.

Take `COC1=CC(c2ccc[nH]2)=N/C1=C\c1[nH]c(C)c(C(=O)CCCCC(=O)Oc2ccc3c(c2)CCC2C3CC[C@]3(C)[C@@H](O)CC[C@@H]23)c1C` (some centres undefined): the GI50 in assay [1] is 31.1 µM; in assay [2] it was 668 nM; in [3] it was 39900 nM; in [5], 53.1 µM; in assay [6], over 100000 nM; in assay [10], 33800 nM. The GI50 was over 100 µM in [7], 7790 nM in [8] and over 100000 nM in assay [9]. Further, the TGI in [1], in [2], in assay [3], in assay [5], in assay [6] and in assay [10] was over 100 µM each time. In addition, the TGI in [7], in assay [8] and in assay [9] was over 100 µM in each case.

Consider `Cc1c(O)c2c(c(O)c1Br)C(=O)C=CC2=O`, for which the TGI in assay [1] was 3.05 µM and 3.56 µM; in assay [3], 2.09 µM and 3.28 µM; in assay [4], 776 nM and 1810 nM; in assay [5], 3.74 µM; in assay [6], 3.18 µM and 3.87 µM; in assay [10], 2.55 µM and 1.15 µM. For the same compound, the TGI is 1.66 µM and 7.1 µM in assay [7]; 3.09 µM and 3.99 µM in [8]; 2.33 µM and 3.07 µM in assay [9]. The GI50 was 1480 nM in [3]; 552 nM in [4]; 343 nM in assay [10]; 2.4 µM in [7]; 1590 nM in [9].

Turning to `Cc1ccc2c(c1)S(=O)(=O)c1ccc3ccccc3c1N2`, the TGI in assay [1], in assay [2], in [3], in assay [5], in assay [6] and in assay [10] was over 100 µM each time. Also, the TGI in assay [7], in assay [8] and in [9] was over 100 µM throughout.

As for `COc1ccc2nc3cc(Cl)ccc3c(Sc3ccc([N+](=O)[O-])cc3)c2c1`, the GI50 in assay [1] was over 100 µM; in assay [2], over 100000 nM; in assay [3], over 100000 nM; in assay [4], over 100000 nM; in [5] it was over 100 µM; in assay [6], over 100000 nM. In addition, the GI50 in assay [10], in assay [8] and in assay [9] was over 100000 nM throughout. Further, the TGI was over 100 µM in assay [1]; over 100 µM in assay [2]; over 100 µM in assay [3]; over 100000 nM in [4]; over 100 µM in [5]; over 100 µM in assay [6]. In addition, the TGI in assay [10], in assay [8] and in [9] was over 100 µM throughout.

As for `C=C(C(=C)P(=S)(c1ccccc1)c1ccccc1)P(=S)(c1ccccc1)c1ccccc1`, the TGI in assay [1] is over 100 µM; in assay [2] it was over 100 µM; in assay [3], over 100 µM; in assay [4] it was over 100000 nM; in assay [5] it was over 100 µM; in assay [6] it was over 100 µM. In addition, the TGI in assay [10], in assay [8] and in assay [9] was over 100 µM each time.

Take `c1ccc2cc(C[n+]3ccn(CCCCCCCCCCn4cc[n+](Cc5ccc6ccccc6c5)c4)c3)ccc2c1`: the GI50 in assay [1] was 1.11 µM; in assay [2] it was 1220 nM; in assay [3], 445 nM; in assay [4], 313 nM; in [6] it was 12.9 nM; in assay [10], 3280 nM. In addition, the values for the GI50 in assay [7] and in [9] were 29.4 µM and 1300 nM, respectively. Also, the TGI in [1] turned out to be 3.08 µM; in [2], 2.97 µM; in assay [3], 3.35 µM; in [4], 1480 nM; in assay [6] it was 2.77 µM; in assay [10], 16.9 µM. The TGI in assay [7] is over 100 µM; in assay [9], 5.66 µM.

Take `COc1cc(/C=C2\C[C@H]3[C@@H]4CC=C5C[C@@H](O)CC[C@]5(C)[C@H]4CC[C@]3(C)[C@H]2O)ccc1OCCCn1ccnc1`: the GI50 in assay [1] is 12.5 µM; in assay [3], 9310 nM; in assay [5], 12.4 µM; in assay [10] it was 738 nM; in assay [7], 13.6 µM; in assay [8], 923 nM. Also, the GI50 in assay [9] is 10200 nM. Moreover, the TGI in assay [1] is over 50 µM; in [3], 40.8 µM; in assay [5] it was over 50 µM; in [10] it was 2.09 µM; in assay [7] it was over 50 µM; in assay [8], 1.72 µM. In [9], this compound returned a TGI of over 50 µM.

With `COc1cc([N+](=O)[O-])c(OC)cc1-c1nc2sc(Cl)cn2c1/C=N/NC1=NCCN1`, the GI50 in assay [3] was 937 nM; in assay [6], 1850 nM; in [10], 1890 nM; in [7] it was over 100 µM; in assay [8], 1650 nM. Further, the TGI in assay [3] is 2.42 µM; in assay [6], 3.57 µM; in assay [10], 3.36 µM; in assay [7] it was over 100 µM; in [8], 3.02 µM.
